The target of data set [1] is T1, human type 2 phosphodiesterase (source: U-937 cells) (Homo sapiens, UniProt O00408).
T1 construct: human type 2 phosphodiesterase (source: U-937 cells); endogenous in cells; host or cells: U-937 cells
The data set can be described thus: Inhibition of PDE2. Format: biochemical. Conditions: substrate 1 μM, 30 minutes at 30° C.
Method: This novel family of compounds was tested as inhibitor of human type 2 phosphodiesterase (source: U-937 cells) by following the process described by Torphy, T. J., Zhou, H. L. and Cieslinski, L. B. (J. Pharmacol. Exp. Ther., 1992, 263, 1195-1205). […] A quantitative measurement of the hydrolysis product [^3H]-5′-AMP was determined by scintillation.

In the next data set the test system is PDE1 (bovine). The data set can be described thus: Selectivity towards PDE1. Format: biochemical. Conditions: substrate [3H]cAMP+cAMP 1 μM, 30 minutes at 30° C. On the procedure:
(§1) D., JACKMAN S. A. and WILKE R. (Brit. J. Pharmacol. 1989, 97, 889-897); (ii, PDE3 and PDE5) Weishaar, R. E., Burrows, S. D., Kobylarz, D. C., Quade, M. M. and Evans, D. B. (Biochem. Pharmacol., 1986, 35, 787-800); (iii, PDE6) Ballard, A. S., Gingell, C. J., Tang, K., Turner, L. A., PRICE, M. E. (J. Urol, 1998, 159, 2164-2171). […] In the case of PDE 5 and 6, the substrate used is ([^3H]cGMP+cGMP) at a concentration of 1 μM for PDE5 and 2 μM for PDE6. A quantitative measurement of the hydrolysis products [^3H]-5′-AMP and [^3H]-5′-GMP was determined by scintillation.

The subject of data set [2] is TNF-alpha in peripheral blood mononuclear cells (PBMC). Description: Anti-inflammatory properties: TNF-alpha in LPS-activated PBMC. Format: cell-based. Conditions: LPS 1 μg/ml, 24 hours, EIA.
Method: The compounds according to the invention were evaluated for their anti-inflammatory properties on peripheral blood mononuclear cells (PBMC). More particularly, the cells were incubated for 24 hours in the presence of the test molecule, after activation with lipopolysaccharide (LPS) (1 μg/ml) according to the protocol described by Schindler, R., Mancilla, J., Endres, S., Ghorbani, R., Clark, S. C. and Dinarello, C. A. (Blood, 1990, 75, 40-47). After incubation, the concentrations of TNF-alpha were measured in the culture supernatants by the EIA method.
Data set [3] deals with human type 4 phosphodiesterase (source: U-937 cells). Description: Inhibition of PDE4.
Method: A quantitative measurement of the hydrolysis product [^3H]-5′-AMP was determined by scintillation.
The subject of a further data set is trabecular bone. The data set can be described thus: Microarchitecture and study of bone markers in mice. The following applies: 5 mg/kg per day, 5 days per week, 4 weeks, subcutaneous; for effect on the bone quantity and microarchitecture (BV/TV, Tb.N): distal metaphysis of the femur, microQCT. Format: in vivo, C57BL6 mice. On the procedure: The object is to test the effect of the components described above on the microarchitecture of the trabecular bone. […] Results on the Bone Microarchitecture • No significant difference between the groups at the start of the treatment. No significant difference between the control (base) group and the Sham group. All the significant differences are represented by an *, *p<0.05; **p<0.01 • Several parameters (10) are recorded and analysed, such as: • BV/TV: represents the bone volume of the trabecular bone to the tissue volume, • Tb.N: trabecular number. The trabecular bone volume (BV/TV, %) and the trabecular number (Tb.N) are calculated via the “Mean Intercept Length (MIL)” method. The trabecular thickness (Tb.Th) and the trabecular space (Tb.Sp) are calculated via the method described by Hildebrand & Ruegsegger (Journal of Microscopy. 185:67-75, 1997). • BV/TV: FIG. 5 • Tb.N: FIG. 6 CONCLUSION

A further data set has as its system PDE3 (human). The data set can be described thus: Selectivity towards PDE3. Format: biochemical. The following applies: PDE1, 3, 5 and 6. On the procedure:
as §1

The subject of data set [4] is primary neuron cultures (foetal rat cerebral cortex). Description: Stimulation of neurotrophic factors: primary neuron cultures observed with and without compound. Format: cell-based. On the procedure: The neurons are cultured in neurobasal medium using foetal rat cerebral cortex according to the procedure described in Example 1 and are photographed without staining 17 days after culturing. Culture A is a control culture without compound. […] Compounds according to the invention were evaluated for their neurotrophic properties. The idea is thus to observe the behaviour of a neuron cell culture in the absence and presence of such molecules. The molecule used in this example is S-tofisopam. The adult animals are coupled and the female rats are separated out the next day. After 16 days, a caesarean section is performed on the gestating female rats and the foetuses are placed in a Petri dish 100 mm in diameter. They are transferred to a laminar flow fume cupboard, in sterile medium. The foetuses are individually isolated and are dissected under a binocular magnifying glass in sterile medium. The cerebral cortex is isolated and placed in a tube containing antibiotic-free neurobasal medium. The tissue is dissociated by suction-ejection, into individual cells in a volume of 2 ml. The cell suspension is then delicately deposited on 2-ml of inactivated foetal calf serum. The tube is centrifuged at low gravity (800 g) for 5 minutes at room temperature. The cell pellet is recovered and the cells are resuspended in complete neurobasal medium. The cells are counted using a Mallassez haematimeter in the presence of trypan blue to determine the cell viability. Culturing is performed by placing 800 000 cells in Petri dishes 60 mm in diameter containing complete neurobasal medium, preheated and equilibrated in a CO2 incubator. These dishes were lined beforehand with a polylysine coat the day before the manipulation. The incubator temperature is set at 37° C., the CO2 level at 5% and the humidity is saturating. The Petri dishes containing the cells are then placed in the incubator. […] These cultures constitute primary neuron cultures. The neuron cultures as prepared above serve as controls. Five dishes are used in order to have a statistical approach. In the other dishes, the test molecule is added at different concentrations: 0.1 μmol/l, 1 μmol/l and 10 μmol/l. In each case, the manipulation is repeated 5 times. The neurons are examined by inverted phase-contrast microscope (Zeiss Axiovert 135) every day after inoculation. The neurons are photographed at various magnifications using a photography camera and are compared between series.

Data set [5] deals with primary cultures of rat motor neuron embryonic cells. The data set can be described thus: Neuroprotective effect, apoptosis induced by suppression of BDNF. It is filed as cell-based. Conditions: 1 μM; apoptosis induced by BDNF deprivation. On the procedure:
This test was performed according to the protocol described by Estevez A. G. et al. (J. Neurosci. 1998, 18(3), 923-931). Briefly, when primary cultures of rat motor neuron embryonic cells are deprived of “brain-derived neurotrophic factor” (BDNF), an induction of neuronal “nitric oxide synthase” (NOS) was observed, resulting in the gradual death of the neurons by apoptosis: between 18 and 24 hours after making the biological preparation, more than 60% of the neurons die. In this model of induced apoptosis, the compound described in Example 1 (S-tofisopam and analogues) protects the neurons by more than 50% at a concentration of 1 μM.

The text below walks through data of US20070161628A1, “Phosphodiesterase inhibitors” (GREENPHARMA, priority 2004, published 2007).

Molecules are shown by their SMILES.

T1 sequence (O00408 whole entry): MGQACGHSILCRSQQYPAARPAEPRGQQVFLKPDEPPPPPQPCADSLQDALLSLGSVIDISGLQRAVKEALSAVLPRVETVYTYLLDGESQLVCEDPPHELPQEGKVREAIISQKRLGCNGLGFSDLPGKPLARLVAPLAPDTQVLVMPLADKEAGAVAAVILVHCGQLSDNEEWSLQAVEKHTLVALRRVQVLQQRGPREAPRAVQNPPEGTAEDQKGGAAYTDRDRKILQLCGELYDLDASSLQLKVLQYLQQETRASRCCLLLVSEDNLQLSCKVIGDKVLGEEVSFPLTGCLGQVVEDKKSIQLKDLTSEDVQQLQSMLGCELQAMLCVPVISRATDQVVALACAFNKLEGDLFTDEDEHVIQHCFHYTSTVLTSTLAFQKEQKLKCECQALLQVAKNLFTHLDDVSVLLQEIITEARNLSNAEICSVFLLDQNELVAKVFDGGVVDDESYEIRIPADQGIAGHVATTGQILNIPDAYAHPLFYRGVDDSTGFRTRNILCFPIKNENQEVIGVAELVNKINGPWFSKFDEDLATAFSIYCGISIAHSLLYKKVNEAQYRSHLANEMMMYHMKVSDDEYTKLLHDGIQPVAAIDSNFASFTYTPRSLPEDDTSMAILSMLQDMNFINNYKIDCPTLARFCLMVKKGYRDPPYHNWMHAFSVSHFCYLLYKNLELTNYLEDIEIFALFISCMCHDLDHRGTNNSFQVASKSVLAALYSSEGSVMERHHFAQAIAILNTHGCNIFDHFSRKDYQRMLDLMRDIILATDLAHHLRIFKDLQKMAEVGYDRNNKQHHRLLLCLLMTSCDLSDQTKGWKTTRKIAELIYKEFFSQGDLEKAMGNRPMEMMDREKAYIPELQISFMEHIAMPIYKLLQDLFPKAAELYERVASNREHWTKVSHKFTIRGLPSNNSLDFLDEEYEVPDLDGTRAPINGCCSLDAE

As to `CCOc1cc2c(cc1OCC)C(CC)C(C)=NN=C2c1ccc(OC)c(OC)c1` (racemic), the melting point is 91 to 93 °C.

Molecule `CCCCCC[C@@H]([C@@H](C)O)n1cnc2c(N)ncnc21` (racemic) [EHNA, reference compound] displayed an IC50 in data set [1] of 2100 nM.

For the molecule `COCc1nc2c([nH]1)c(=O)n(C)c(=O)n2CC(C)C` [8-methoxy-IBMX], in the data set with PDE1 (bovine), the IC50 amounted to 2900 nM.

Consider `CCOc1cc2c(cc1OCC)[C@@H](CC)C(C)=NN=C2c1ccc(OC)c(OC)c1` [R-etofisopam, (R) 1-(3,4-dimethoxy-phenyl)-4-methyl-5-ethyl-7,8-diethoxy-5H-2,3-benzodiazepine], for which, in data set [2], the half-inhibitory concentration (IC50) lay within 1 to 100 nM.

As to `CCOc1cc2c(cc1OCC)[C@H](CC)C(C)=NN=C2c1ccc(OC)c(OC)c1` [S-etofisopam, 5S-(3,4-dimethoxyphenyl)-5-ethyl-4-methyl-7,8-diethoxy-5H-2,3-benzodiazepine], the IC50 in [2] is 1 to 100 nM; in data set [3] (read-out: IC50 PDE4, substrate [3H]cAMP+cAMP 1 μM, 30 minutes at 30° C.) it was 20 nM. Also, the “effect on the bone quantity and microarchitecture (BV/TV, Tb.N)” value in the data set with trabecular bone was “Identity results”. Besides, the “inhibition of the other PDEs, especially PDE3, compared with PDE4 or PDE2” value in the data set on PDE3 (human) is given as “more weakly”.

Consider `CC[C@@H]1C(C)=NN=C(c2ccc(OC)c(OC)c2)c2cc(OC)c(OC)cc21` [S-tofisopam, (5S)-1-(3,4-dimethoxyphenyl)-5-ethyl-7,8-dimethoxy-4-methyl-5H-2,3-benzodiazepine], for which the IC50 is 1 to 100 nM in data set [2] and 500 nM in data set [1]. Besides, the “inhibition on PDE4 relative to R-tofisopam” value in data set [3] (S-tofisopam versus R-tofisopam) is recorded as “ten times higher”. In addition, the “markers and cellular activity: effect on bone formation and bone resorption” value in the data set on trabecular bone is recorded as “uncoupling effect: anabolic on bone formation, inhibitory on bone resorption”. Moreover, in the data set on trabecular bone, the “effect on the bone quantity and microarchitecture (BV/TV, Tb.N)” value was “positive effect”. Besides, in [4] (astrocyte culture supernatant added, compared with control), the “density of the neurites with added astrocyte culture supernatant” value was “increasing the density of the neurites”. Besides, the “cell survival: time treated neurons remain alive after application” value in data set [4] (control: all neurons disappeared after 15 days) is given as “almost four weeks”. Also, the “neurotrophic and neuroprotective role in neuron culture” value in data set [4] (overall conclusion) is listed as “not only a neurotrophic role but also a neuroprotective role”. For the same molecule, the “growth of the neurites versus control” value in data set [4] (primary neuron culture, test concentrations 0.1, 1 and 10 μmol/l (FIG. 1: 50 μM added on day 8)) is given as “greater growth of the neurites than in the cells used as control”. Besides, the “protection of the neurons” value in data set [5] is listed as “more than 50%”. For the same molecule, in the data set on PDE3 (human), the “inhibition of the other PDEs, especially PDE3, compared with PDE4 or PDE2” value was “more weakly”.

`C[C@@H]1C[C@H]2[C@@H]3CCC4=CC(=O)C=C[C@]4(C)[C@@]3(F)[C@@H](O)C[C@]2(C)[C@@]1(O)C(=O)CO` [dexamethasone, reference compound] gave an IC50 in data set [2] of 4600 nM.

The melting point is the temperature, or range, at which the solid turns liquid. What is called IC50 is the concentration needed to halve the response being measured.
